Experimental data reported in ChEMBL document CHEMBL3400046, “Discovery and evaluation of a novel monocyclic series of CXCR2 antagonists” (Bioorg Med Chem Lett, 2015).

Experiments:
in vitro [1] = settings: human, Caco-2
physchem = settings: octanol/water
[2] = Bioavailability in iv dosed rat; type: ADME, organism-based; settings: in vivo
Rattus norvegicus = experiment: Dose normalized AUC in po dosed rat; type: ADME, organism-based; settings: in vivo
[3] = Fraction of the dose absorbed in iv dosed rat; type: ADME, organism-based; settings: in vivo, read-out: Fabs
in vitro [4] = settings: human, hepatocytes
[5] = Dissociation constant, pKa of the compound; type: physicochemical
[6] = Half life in iv dosed rat; type: ADME, organism-based; settings: in vivo
in vivo = settings: rat, iv
[7] = Volume of distribution at steady state in iv dosed rat; type: ADME, organism-based; settings: in vivo, read-out: Vdss
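Throughout, for logD: distribution coefficient determined with the shake-flask method.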

| SMILES | logD (physchem) | hepatocyte CLint (in vitro [4]) | pKa [5] | further results |
| --- | --- | --- | --- | --- |
| C[C@H](CO)Nc1cc(NS(=O)(=O)N(C)C)nc(SCc2cccc(Cl)c2F)n1 | 3.4 | – | – | Papp A→B (in vitro [1]): 6.4 ×10⁻⁶ cm/s |
| C[C@H](CO)Nc1cc(NS(=O)(=O)c2cn(C)cn2)nc(SCc2cccc(F)c2F)n1 | 1.6 | – | – | – |
| C[C@H](CO)Nc1nc(SCc2cccc(F)c2F)nc2nc(N)sc12 | – | – | – | bioavailability [2]: 9%; AUC/dose (Rattus norvegicus): 0.7 µM·h; Fa [3]: 12% |
| C[C@H](CO)Nc1cc(NS(=O)(=O)N2CCCC2)nc(SCc2cccc(F)c2F)n1 | 3.4 | 12 µL/min/1e6 cells | – | Papp A→B (in vitro [1]): 7.5 ×10⁻⁶ cm/s |
| C[C@H](CO)Nc1cc(NS(=O)(=O)N2CCC2)nc(SCc2cccc(F)c2F)n1 | 2.6 | 3.1 µL/min/1e6 cells | – | bioavailability [2]: 44%; AUC/dose (Rattus norvegicus): 5.9 µM·h; half-life [6]: 3.2 h; Papp A→B (in vitro [1]): 10.1 ×10⁻⁶ cm/s; clearance (in vivo): 8 mL/min/kg; Fa [3]: 50%; Vd [7]: 1.4 L/kg |
| C[C@H](CO)Nc1cc(NS(=O)(=O)N2CCNCC2)nc(SCc2cccc(Cl)c2F)n1 | 1.5 | – | – | Papp A→B (in vitro [1]): 0.1 ×10⁻⁶ cm/s |
| C[C@H](CO)Nc1cc(NS(=O)(=O)N2CCOCC2)nc(SCc2cccc(F)c2F)n1 | – | 4.6 µL/min/1e6 cells | – | bioavailability [2]: 31%; AUC/dose (Rattus norvegicus): 1.6 µM·h; half-life [6]: 1 h; clearance (in vivo): 25 mL/min/kg; Fa [3]: 48%; Vd [7]: 1.1 L/kg |
| C[C@H](CO)Nc1cc(NS(=O)(=O)N2CCOCC2)nc(SCc2cccc(Cl)c2F)n1 | 3.1 | 8 µL/min/1e6 cells | – | Papp A→B (in vitro [1]): 5.4 ×10⁻⁶ cm/s |
| C[C@H](CO)Nc1nc(SCc2cccc(F)c2F)nc2[nH]c(=O)sc12 | – | 15 µL/min/1e6 cells | – | bioavailability [2]: 22%; AUC (Rattus norvegicus): 2.1 µM·h; half-life [6]: 1.1 h; clearance (in vivo): 6 mL/min/kg; Fa [3]: 24%; Vd [7]: 0.3 L/kg |
| C[C@H](CO)Nc1cc(NS(=O)(=O)N2CCC2)nc(SCc2cccc(Cl)c2F)n1 | 3.2 | 2.4 µL/min/1e6 cells | – | – |
| C[C@H](CO)Nc1cc(NS(=O)(=O)N2CCCCC2)nc(SCc2cccc(F)c2F)n1 | 3.9 | 30 µL/min/1e6 cells | – | – |

Further lines, with some results ahead:

| logD (physchem) | hepatocyte CLint (in vitro [4]) | pKa [5] | SMILES | further results |
| --- | --- | --- | --- | --- |
| 2.7 | – | – | C[C@H](CO)Nc1cc(NS(=O)(=O)Cc2ccccc2)nc(SCc2ccccc2)n1 | – |
| 2.6 | – | 7.3 | C[C@H](CO)Nc1cc(NS(=O)(=O)N(C)C)nc(SCc2ccccc2)n1 | – |
| 3.5 | – | 6.5 | C[C@H](CO)Nc1cc(NS(=O)(=O)c2ccc(Cl)cc2)nc(SCc2ccccc2)n1 | – |
| 2.5 | – | 6.6 | C[C@H](CO)Nc1cc(NS(=O)(=O)c2ccccc2)nc(SCc2ccccc2)n1 | – |
| 1.9 | – | 6.9 | C[C@H](CO)Nc1cc(NS(C)(=O)=O)nc(SCc2ccccc2)n1 | – |
| 2.2 | – | 5.8 | C[C@H](CO)Nc1cc(NS(=O)(=O)C(F)(F)F)nc(SCc2ccccc2)n1 | – |
| 2 | – | – | C[C@H](CO)Nc1cc(NS(=O)(=O)c2cn(C)cn2)nc(SCc2cccc(Cl)c2F)n1 | Papp A→B (in vitro [1]): 1.4 ×10⁻⁶ cm/s |
| 2.6 | – | 6.1 | C[C@H](CO)Nc1cc(NS(=O)(=O)c2ccc(C#N)cc2)nc(SCc2ccccc2)n1 | – |
| -0.7 | – | 5.5 | C[C@H](CO)Nc1cc(C(=O)O)nc(SCc2ccccc2)n1 | – |
| -0.7 | – | 4.9 | C[C@H](CO)Nc1cc(C(=O)NS(C)(=O)=O)nc(SCc2ccccc2)n1 | – |
